Assay [1] concerns the target T1, glycine transporter-2 (GlyT-2) (Homo sapiens, UniProt Q9Y345).
T1 construct: expressed in transfected cells
T1 sequence (Q9Y345 1-797): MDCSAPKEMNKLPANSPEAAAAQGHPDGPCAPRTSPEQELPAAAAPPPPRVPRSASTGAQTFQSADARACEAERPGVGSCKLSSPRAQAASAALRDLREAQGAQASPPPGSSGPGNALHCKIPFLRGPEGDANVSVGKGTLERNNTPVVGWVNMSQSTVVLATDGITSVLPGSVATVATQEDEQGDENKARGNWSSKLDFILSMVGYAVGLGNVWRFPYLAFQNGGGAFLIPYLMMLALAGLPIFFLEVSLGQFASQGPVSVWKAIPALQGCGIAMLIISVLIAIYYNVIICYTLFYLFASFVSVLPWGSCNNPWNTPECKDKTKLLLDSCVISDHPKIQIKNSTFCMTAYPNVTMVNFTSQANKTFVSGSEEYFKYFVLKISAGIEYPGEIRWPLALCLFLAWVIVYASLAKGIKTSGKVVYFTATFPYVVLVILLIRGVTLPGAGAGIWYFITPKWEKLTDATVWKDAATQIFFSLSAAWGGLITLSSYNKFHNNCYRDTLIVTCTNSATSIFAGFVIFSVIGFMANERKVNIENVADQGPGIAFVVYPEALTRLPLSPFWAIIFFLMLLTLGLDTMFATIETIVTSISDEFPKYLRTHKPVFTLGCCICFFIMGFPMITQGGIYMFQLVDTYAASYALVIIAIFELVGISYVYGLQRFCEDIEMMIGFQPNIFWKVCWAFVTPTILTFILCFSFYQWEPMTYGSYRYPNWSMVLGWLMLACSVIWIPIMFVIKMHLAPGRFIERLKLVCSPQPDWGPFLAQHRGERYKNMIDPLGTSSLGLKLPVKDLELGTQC
Kind of assay: [14C]glycine uptake assay in HEK-GlyT-2 transfected cells. The assay is classed as cell-based. The settings on record: HEK-GlyT-2 cells.

Assay [2] deals with T2, glycine transporter-1 (GlyT-1) (Homo sapiens, UniProt P48067).
T2 construct: JAR cells (ATCC#HTB-144), which endogenously express GlyT-1; host or cells: JAR human choriocarcinoma cells
T2 sequence (P48067 1-706): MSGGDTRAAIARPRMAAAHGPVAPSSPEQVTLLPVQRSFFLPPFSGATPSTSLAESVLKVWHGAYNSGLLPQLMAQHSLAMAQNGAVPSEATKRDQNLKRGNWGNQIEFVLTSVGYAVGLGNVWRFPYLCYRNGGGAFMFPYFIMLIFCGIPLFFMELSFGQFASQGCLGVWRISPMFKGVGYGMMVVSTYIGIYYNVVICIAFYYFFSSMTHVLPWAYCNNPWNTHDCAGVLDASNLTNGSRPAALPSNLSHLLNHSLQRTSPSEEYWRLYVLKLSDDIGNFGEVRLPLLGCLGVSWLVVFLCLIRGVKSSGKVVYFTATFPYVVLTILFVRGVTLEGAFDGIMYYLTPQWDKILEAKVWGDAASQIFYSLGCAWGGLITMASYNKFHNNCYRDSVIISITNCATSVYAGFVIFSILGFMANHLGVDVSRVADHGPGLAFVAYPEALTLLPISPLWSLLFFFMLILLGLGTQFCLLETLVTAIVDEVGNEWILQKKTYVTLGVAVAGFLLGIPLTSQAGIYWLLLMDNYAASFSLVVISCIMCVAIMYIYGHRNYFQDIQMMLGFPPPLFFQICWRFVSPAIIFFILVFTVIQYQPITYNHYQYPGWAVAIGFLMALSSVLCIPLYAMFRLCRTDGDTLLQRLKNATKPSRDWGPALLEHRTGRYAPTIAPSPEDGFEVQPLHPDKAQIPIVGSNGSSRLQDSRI
Kind of assay: [14C]glycine uptake assay in JAR cells endogenously expressing GlyT-1 (scintillation proximity). The assay is classed as cell-based. Conditions: JAR cells, [14C]glycine 5 μM, 3 hour incubation; read-out: GlyT-1 IC50. An outline of the steps:
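Human choriocarcinoma JAR cells (endogenous GlyT-1) attached overnight, then pre-incubated 10 min at room temperature with compound in pH 7.4 Hepes uptake buffer containing 5 mM alanine and 0.75% DMSO. Uptake of 5 μM [14C]glycine over 3 h at 37 °C read by scintillation proximity; IC50 from four-parameter fit of nine-point curves.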
(Scintillation proximity formats need no separation of bound from free tracer.)

Structures can show the parent of a compound that is named as a salt.

A word on the IC50: it is the midpoint of a concentration-inhibition curve.

Regarding `CCCS(=O)(=O)N1CCN(C2(CNC(=O)c3cccc(OC)c3Cl)CCCCCC2)CC1` [compound 65, 2-Chloro-3-methoxy-N-((1-(4-(propylsulfonyl)piperazin-1-yl)cycloheptyl)methyl) benzamide Hydrochloride], the IC50 was above 75 µM in assay [1] and 204 nM in assay [2].

Regarding “4-Chloro-N-((1-(4- (propylsulfonyl)piperazin- 1-yl)cycloheptyl)methyl) benzamide Hydrochloride [compound 58]”, the IC50 in assay [1] is 53 µM; in assay [2] it was 265 nM.

As for `CCCS(=O)(=O)N1CCN(C2(CNC(=O)c3ccc(OC(F)(F)F)cc3)CCCCC2)CC1` [compound 6, N-((1-(4-(Propylsulfonyl)piperazin-1-yl)cyclohexyl)methyl)-4-(trifluoromethoxy) benzamide Hydrochloride], the IC50 in assay [1] was 28.6 µM; in assay [2] it was 118 nM.

Turning to `COc1cc(F)cc(C)c1C(=O)NCC1(N2CCN(S(=O)(=O)CC3CC3)CC2)CCCCC1` [compound 79, N-((1-(4-(Cyclopropylmethyl-sulfonyl)piperazin-1-yl)cyclohexyl)methyl)-4-fluoro-2-methoxy-6-methylbenzamide Hydrochloride], the IC50 was above 75 µM in assay [1] and 29 nM in assay [2].

For `CCCS(=O)(=O)N1CCN(C2(CNC(=O)c3ccc(Cl)cc3OC)CCCCCC2)CC1` [compound 53, 4-Chloro-2-methoxy-N-((1-(4-(propylsulfonyl)piperazin-1-yl)cycloheptyl)methyl) benzamide Hydrochloride], the IC50 was above 75 µM in assay [1] and 373 nM in assay [2].

On to `COc1cc(F)cc(SC)c1C(=O)NCC1(N2CCN(S(=O)(=O)CC3CC3)CC2)CCCCC1` [compound 82, N-((1-(4-(Cyclopropylmethyl-sulfonyl)piperazin-1-yl)cyclohexyl)methyl)-4-fluoro-2-methoxy-6-(methylthio)benzamide Hydrochloride], for which the results for the IC50 in assay [1] and in assay [2] were above 75 µM and 50 nM, respectively.

For the compound `CCCS(=O)(=O)N1CCN(C2(CNC(=O)c3ccccc3OC(F)(F)F)CCC(F)(F)CC2)CC1` [compound 141, N-((4,4-Difluoro-1-(4-(propylsulfonyl)piperazin-1-yl)cyclohexyl)methyl)-2-(trifluoromethoxy) benzamide Hydrochloride], the IC50 was above 75 µM in assay [1] and 48 nM in assay [2].

As to `CCCS(=O)(=O)N1CCN(C2(CNC(=O)c3ccc(OC)cc3)CCCCC2)CC1` [compound 23, 4-Methoxy-N-((1-(4-(propylsulfonyl)piperazin-1-yl)cyclohexyl)methyl) benzamide Hydrochloride], the IC50 came to 61.9 µM in assay [1] and 1140 nM in assay [2].

`Cn1cnc(S(=O)(=O)N2CCN(C3(CNC(=O)c4c(F)cccc4F)CCCOC3)CC2)c1` (stereo not drawn) [compound 127, 2,6-Difluoro-N-((3-(4-(1-methyl-1H-imidazol-4-ylsulfonyl)piperazin-1-yl)tetrahydro-2H-pyran-3-yl)methyl)benzamide Hydrochloride]: the IC50 in assay [1] was above 75 µM; in assay [2] it was 369 nM.

With `CCCS(=O)(=O)N1CCN(C2(CNC(=O)c3c(N)cccc3F)CCCCC2)CC1` [compound 41, 2-Amino-6-fluoro-N-((1-(4-(propylsulfonyl)piperazin-1-yl)cyclohexyl)methyl) benzamide Hydrochloride], the IC50 in assay [1] is above 75 µM; in assay [2] it was 71 nM.

As for `Cn1cc(S(=O)(=O)N2CCN(C3(CNC(=O)c4ccc(Cl)cc4Cl)CCCC3)CC2)nn1` [compound 110, 2,4-Dichloro-N-((1-(4-(1-methyl-1H-1,2,3-triazol-4-ylsulfonyl)piperazin-1-yl)cyclopentyl)methyl) benzamide Hydrochloride], the IC50 was above 75 µM in assay [1] and 27 nM in assay [2].

In the case of `Cn1cnc(S(=O)(=O)N2CCN(C3(CNC(=O)c4ccc(Cl)cc4Cl)CCCC3)CC2)c1` [compound 105, Hydrochloride], the half-maximal inhibitory concentration (IC50) in assay [1] is above 75 µM; in assay [2], 102 nM.

For `CCCS(=O)(=O)N1CCN(C2(CNC(=O)c3cccc(C(F)(F)F)c3Cl)CCCCCC2)CC1` [compound 59, 2-Chloro-N-((1-(4-(propylsulfonyl)piperazin-1-yl)cycloheptyl)methyl)-3-(trifluoromethyl) benzamide Hydrochloride], the IC50 in assay [1] was above 75 µM; in assay [2], 128 nM.

As for `CCCS(=O)(=O)N1CCN(C2(CNC(=O)c3c(Cl)cc(C(F)(F)F)cc3Cl)CCC(F)(F)CC2)CC1` [compound 258, 2,6-Dichloro-N-((4,4-difluoro-1-(4-(propylsulfonyl)piperazin-1-yl)cyclohexyl)methyl)-4-(trifluoromethyl) benzamide Hydrochloride], the concentration for half-maximal inhibition (IC50) in assay [1] was above 75 µM; in assay [2], 9 nM.

In the case of `CCCS(=O)(=O)N1CCN(C2(CNC(=O)c3c(C)cc(F)cc3OC)CCCCCC2)CC1` [compound 69, 4-Fluoro-2-methoxy-6-methyl-N-((1-(4-(propylsulfonyl)piperazin-1-yl)cycloheptyl)methyl) benzamide Hydrochloride], the values for the IC50 in assay [1] and in assay [2] were above 75 µM and 4 nM, respectively.

Take `COc1cc(F)cc(C)c1C(=O)NCC1(N2CCN(S(=O)(=O)CC3CC3)CC2)CCCCCC1` [compound 86, N-((1-(4-(Cyclopropylmethyl-sulfonyl)piperazin-1-yl)cycloheptyl)methyl)-4-fluoro-2-methoxy-6-methylbenzamide Hydrochloride]: the values for the IC50 in assay [1] and in assay [2] were above 75 µM and 99 nM, respectively.

In the case of `CCCS(=O)(=O)N1CCN(C2(CNC(=O)c3ccc(OC(F)(F)F)cc3)CCCCCC2)CC1` [compound 62, N-((1-(4-(Propylsulfonyl)piperazin-1-yl)cycloheptyl)methyl)-4-(trifluoromethoxy) benzamide Hydrochloride], the figures for the IC50 in assay [1] and in assay [2] were 3.64 µM and 81 nM, respectively.

Regarding `CCCS(=O)(=O)N1CCN(C2(CNC(=O)c3cc(F)c(Cl)cc3Cl)CCC(F)(F)CC2)CC1` [compound 263, 2,4-Dichloro-N-((4,4-difluoro-1-(4-(propylsulfonyl)piperazin-1-yl)cyclohexyl)methyl)-5-fluorobenzamide Hydrochloride], the figures for the IC50 in assay [1] and in assay [2] were above 75 µM and 23 nM, respectively.

Consider `Cn1cc(S(=O)(=O)N2CCN(C3(CNC(=O)c4cc(F)c(F)cc4Cl)CCC(F)(F)CC3)CC2)nn1` [compound 235, 2-Chloro-N-((4,4-difluoro-1-(4-(1-methyl-1H-1,2,3-triazol-4-ylsulfonyl)piperazin-1-yl)cyclohexyl)methyl)-4,5-difluorobenzamide Hydrochloride], for which the IC50 in assay [1] was above 75 µM; in assay [2] it was 3 nM.

In the case of `CCCS(=O)(=O)N1CCN(C2(CNC(=O)c3ccc(Br)cc3)CCCCC2)CC1` [compound 11, 4-Bromo-N-((1-(4-(propylsulfonyl)piperazin-1-yl)cyclohexyl)methyl) benzamide Hydrochloride], the half-inhibitory concentration (IC50) in assay [1] was above 75 µM; in assay [2] it was 222 nM.

Turning to `Cn1cnc(S(=O)(=O)N2CCN(C3(CNC(=O)c4ccc(F)cc4F)CCCCC3)CC2)c1` [compound 100, 2,4-Difluoro-N-((1-(4-(1-methyl-1H-imidazol-4-ylsulfonyl)piperazin-1-yl)cyclohexyl)methyl) benzamide Hydrochloride], the IC50 is above 75 µM in assay [1] and 30 nM in assay [2].

The values above are taken from patent US9045445B2, “Glycine transporter-1 inhibitors, methods of making them, and uses thereof” (Albany Molecular Research, Inc., priority 2010, dated 2015).
